Experiments:
[1] = biological target: Jak1 (Homo sapiens, UniProt P23458); assay: Jak1 kinase activity inhibition, Caliper Reader; type: biochemical
Method: (§1) Kinase JAk1 and Jak2 enzyme inhibition IC50 evaluation experiments: The buffer was configured with the following components: 50 mM HEPES, pH 7.5, 0.00015% Brij-35. Compounds were placed in a concentration gradient in 100% DMSO and diluted to 10% DMSO with buffer and added to 384 well plates. For example, when the initial concentration of the compound is […], it is made into 12.5 μM with 100% DMSO, and diluted by 5 or 6 concentrations, and then diluted 10-fold with buffer to prepare an intermediate dilution of the compound containing 10% DMSO. Transfer 5 μL, to 384-well plate. The Jak1 and Jak2 enzymes were diluted to the optimal concentration with the following buffer: 50 mM HEPES, pH 7.5, 0.00015% Brij-35, 2 mM DTT. Transfer 10 μL to a 384-well plate and incubate with the compound for 10-15 minutes. The substrate was diluted to the optimal concentration with the following buffer: 50 mM HEPES, pH 7.5, 0.00015% Brij-35, 10 mM MgCl2, adenosine triphosphate at Km. The reaction was initiated by adding 10 μL to a 384-well plate and reacted at 28° C. for 1 hour. The conversion rate was then read using a Caliper Reader and the inhibition rate was calculated. The formula is as follows: Percent inhibition=(max−conversion)/(max−min)*100. Where max is the conversion of the DMSO control and min is the conversion of the enzyme-free control. Fit the IC50 value with XLFit excel add-in version 5.4.0.8. Fitting formula: Y=Bottom+(Top−Bottom)/(1+(IC50/X)^HillSlope).

[2] = biological target: Jak2 (Homo sapiens, UniProt O60674); assay: Jak2 kinase activity inhibition, Caliper Reader; type: biochemical
Method: as §1

[3] = biological target: SYK (Homo sapiens, UniProt P43405); assay: Syk kinase activity inhibition, Caliper mobility shift assay; type: biochemical
Method: SYK protein kinase activity was determined using the Caliper mobility shift assay. The compound was dissolved in DMSO and diluted with kinase buffer (20 mM HEPES, 0.01% Triton X-100, 5 mM MgCl2, 1 mM MnCl2, 2 mM DTT), and 5 μL of 5 times final concentration was added to the 384-well plate Compound (10% DMSO). After adding 10 μL of 2.5-fold enzyme (with SYK) solution, incubate for 10 minutes at room temperature, and then add 10 μL of 2.5-fold substrate (Peptide FAM-P22 and ATP) solution. Incubate at 28° C. for 30 minutes, then stop the reaction by adding 25 μL of stop solution (100 mM HEPES, 0.015% Brij-35, 0.2% Coating Reagent #13, 50 mM EDTA, pH 7.5). Conversion rate data was read on a Caliper EZ Reader II (Caliper Life Sciences) The conversion rate was converted into inhibition rate data (% inhibition rate=(max−conversion rate)/(max−min)*100). Where max is the conversion of the DMSO control and min is the conversion of the enzyme-free control. Curves were plotted with compound concentration and inhibition rate on the horizontal and vertical coordinates, and the curve was fitted using XLFit excel add-in version 4.3.1 software and IC50 was calculated.

[4] = biological target: CDK6/cycD3 (Homo sapiens, UniProt Q00534); assay: CDK6 kinase activity inhibition, Caliper mobility shift assay; type: biochemical
Method: (§2) CDK2/CycA2, CDK4/CycD3 and CDK6/cycD3 protein kinase activities were determined using the Caliper mobility shift assay. The compound was dissolved in DMSO and diluted with kinase buffer (CDK2/CycA2 and CDK6/cycD3 with 50 mM HEPES (pH 7.5), 10 mM MgCl2, 0.0015% Brij-35, and 2 mM dithiothreitol; CDK4/CycD3 with 20 mM HEPES (pH 7.5), 10 mM MgCl2, 0.01% Triton X-100, and 2 mM dithiothreitol), 5 μl of a 5-fold final concentration of the compound (10% DMSO) was added to a 384-well plate. Add 10 μL of 2.5-fold […] enzyme solution and incubate for 10 minutes at room temperature, then add 10 μL of 2.5-fold substrate solution (corresponding enzyme and substrate concentration CDK2/CycA2 12 nM, ATP Kin 39 μM; CDK4/CycD3 10 nM, ATP Km 221 μM; CDK6/cycD3 15 nM, ATP Km […]) Incubate at 28° C. (60 min CDK2, 180 min CDK4, 60 min CDK6) followed by 25 μl stop solution (100 mM HEPES (pH 7.5), 0.015% Brij-35, 0.2% Coating Reagent #3, 50 mM EDTA) Stop the reaction. Conversion rate data was read on a Caliper EZ Reader 11 (Caliper Life Sciences). The conversion rate was converted into inhibition rate data (% inhibition rate=(max−conversion rate)/(max−min)*100) Where max is the conversion of the DMSO control and min is the conversion of the enzyme-free control. Curves were plotted with compound concentration and inhibition rate on the horizontal and vertical coordinates, and the curve was fitted using XLFit excel add-in version 4.3.1 software and IC50 was calculated.

[5] = biological target: CDK2/CycA2 (Homo sapiens, UniProt P24941); assay: CDK2 kinase activity inhibition, Caliper mobility shift assay; type: biochemical
Method: as §2

[6] = biological target: CDK4/CycD3 (Homo sapiens, UniProt P11802); assay: CDK4 kinase activity inhibition, Caliper mobility shift assay; type: biochemical
Method: as §2

[7] = Pharmacokinetic study in mice, intragastric administration; type: in vivo; settings: mouse, male ICR mice, PO dose 5 mg/kg, plasma
Method: Instrument: API4000+LC/MS instrument manufactured by AB Sciex. All measurement data was collected and processed by Analyst 1.6.3 software, and data was calculated and processed by Microsoft Excel. Using the DAS 3.2.8 software, the statistical moment method was used to calculate the pharmacokinetic parameters. t mainly includes kinetic parameters Tmax, T½, Cmax, AUC(0-t) and the like Column: ACQUITY UPLC BEH C18 (2.1 mm×50 mm, 1.7 μm), column temperature 40° C.; mobile phase A is water (0.1% formic acid+5 mM ammonium acetate), mobile phase B is acetonitrile (0.1% acetic acid). The flow rate was 0.30 ml/min and the isocratic elution of 90% B was maintained for 1.5 minutes. Injection volume: 5 μL.
Animals: 12 male ICR mice, weighing 22-26 g, were used after 2 days of feeding in the laboratory of the experimental animal center. They were fasted 12 hours before the administration and 4 hours after the administration, and were free to drink during the test. Mice were randomly divided into four groups of 3 animals each. After intragastric administration, blood samples were taken at two different time points in each group.
Solvent: 0.5% Methylcellulose (aqueous solution containing 0.4% Tween 80). Formulation of intragastric administration solution. The compound is accurately weighed, added to the solvent, and sonicated at room temperature for 5 minutes to completely dissolve the drug to prepare a drug solution of 0.33 mg/ml.
Drug sample: A representative compound of the structure represented by the patent formula (I) of the present invention generally adopts a plurality of samples having similar structures (molecular weight difference of more than 2 units), accurately weighed, and administered together (cassette PK). This allows multiple compounds to be screened simultaneously and their oral absorption rates compared. Single drug administration was also used to study the pharmacokinetics of drug samples in mice.
Blood was taken from the eyelids at 0.25, 0.5, 1, 2, 4, 8, 12, and 24 hours after intragastric administration. In the heparin-treated tube, the supernatant was centrifuged for LC-MS/MS analysis.
Accurately weigh the compounds to different concentrations, perform quantitative analysis on the mass spectrometer to establish a standard curve, and then test the concentration of the compound in the above plasma to obtain the concentration of the compound at different time points. All the measured data were collected and processed by the relevant software, and the statistical moment method was used to calculate the pharmacokinetic parameters (mainly including the kinetic parameters Tmax, T1/2, Cmax, AUC(0-t), etc.).

[8] = biological target: T1, FLT3 (Homo sapiens, UniProt P36888); assay: FLT3 kinase activity inhibition, Caliper mobility shift assay; type: biochemical
T1 sequence (P36888 27-993): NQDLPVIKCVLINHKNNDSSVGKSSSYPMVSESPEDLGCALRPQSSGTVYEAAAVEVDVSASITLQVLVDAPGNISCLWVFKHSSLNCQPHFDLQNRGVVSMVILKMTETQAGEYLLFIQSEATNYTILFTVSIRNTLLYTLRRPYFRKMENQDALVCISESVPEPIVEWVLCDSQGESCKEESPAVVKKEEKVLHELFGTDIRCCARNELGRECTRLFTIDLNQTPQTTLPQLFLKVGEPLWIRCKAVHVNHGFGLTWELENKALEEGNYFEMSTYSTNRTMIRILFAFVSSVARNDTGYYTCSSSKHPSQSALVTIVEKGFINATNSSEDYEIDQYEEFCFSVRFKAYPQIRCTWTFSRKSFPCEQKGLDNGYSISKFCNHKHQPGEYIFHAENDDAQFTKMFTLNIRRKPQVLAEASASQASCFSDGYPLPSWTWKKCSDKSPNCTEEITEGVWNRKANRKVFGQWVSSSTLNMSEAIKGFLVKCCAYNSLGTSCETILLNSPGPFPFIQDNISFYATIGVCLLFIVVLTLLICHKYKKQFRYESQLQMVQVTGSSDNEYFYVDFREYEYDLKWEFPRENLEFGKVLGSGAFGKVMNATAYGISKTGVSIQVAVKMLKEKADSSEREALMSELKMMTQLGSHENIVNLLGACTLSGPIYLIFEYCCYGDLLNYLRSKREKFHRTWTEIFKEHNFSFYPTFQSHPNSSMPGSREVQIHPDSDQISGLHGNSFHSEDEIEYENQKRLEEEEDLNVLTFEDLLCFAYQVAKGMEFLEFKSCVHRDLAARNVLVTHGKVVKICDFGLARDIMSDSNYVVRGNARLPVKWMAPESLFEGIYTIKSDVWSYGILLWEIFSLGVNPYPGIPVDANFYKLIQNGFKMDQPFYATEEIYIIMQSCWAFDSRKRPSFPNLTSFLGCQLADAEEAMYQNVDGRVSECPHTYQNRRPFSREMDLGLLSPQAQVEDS
Method: FLT3 protein kinase activity was measured using the Caliper mobility shift assay. The compound was dissolved in DMSO and diluted with a kinase buffer (50 mM HEPES, pH 7.5, 0.0015% Brij-35, 2 mM DTT), and 5 μL of a 5-fold final concentration of the compound (10% DMSO) was added to a 384-well plate. After adding 10 μL of 2.5-fold FLT3 enzyme solution, incubate for 10 minutes at room temperature, and then add 10 μL of a 2.5-fold substrate (FAM-labeled polypeptide and ATP) solution. After incubation at 28° C. for 60 minutes, the reaction was stopped by adding 25 μL of stop solution (100 mM HEPES, 0.015% Brij-35, 0.2% Coating Reagent #3, 50 mM EDTA, pH 7.5). Conversion rate data was read on a Caliper EZ Reader II (Caliper Life Sciences). The conversion rate was converted into inhibition rate data (% inhibition rate=(max−conversion rate)/(max−min)*100). Where max is the conversion of the DMSO control and min is the conversion of the enzyme-free control Curves were plotted with compound concentration and inhibition rate on the horizontal and vertical coordinates, and the curve was fitted using XLFit excel add-in version 4.3.1 software and IC50 was calculated.

Jak2, sequence (O60674 whole entry, species assumed): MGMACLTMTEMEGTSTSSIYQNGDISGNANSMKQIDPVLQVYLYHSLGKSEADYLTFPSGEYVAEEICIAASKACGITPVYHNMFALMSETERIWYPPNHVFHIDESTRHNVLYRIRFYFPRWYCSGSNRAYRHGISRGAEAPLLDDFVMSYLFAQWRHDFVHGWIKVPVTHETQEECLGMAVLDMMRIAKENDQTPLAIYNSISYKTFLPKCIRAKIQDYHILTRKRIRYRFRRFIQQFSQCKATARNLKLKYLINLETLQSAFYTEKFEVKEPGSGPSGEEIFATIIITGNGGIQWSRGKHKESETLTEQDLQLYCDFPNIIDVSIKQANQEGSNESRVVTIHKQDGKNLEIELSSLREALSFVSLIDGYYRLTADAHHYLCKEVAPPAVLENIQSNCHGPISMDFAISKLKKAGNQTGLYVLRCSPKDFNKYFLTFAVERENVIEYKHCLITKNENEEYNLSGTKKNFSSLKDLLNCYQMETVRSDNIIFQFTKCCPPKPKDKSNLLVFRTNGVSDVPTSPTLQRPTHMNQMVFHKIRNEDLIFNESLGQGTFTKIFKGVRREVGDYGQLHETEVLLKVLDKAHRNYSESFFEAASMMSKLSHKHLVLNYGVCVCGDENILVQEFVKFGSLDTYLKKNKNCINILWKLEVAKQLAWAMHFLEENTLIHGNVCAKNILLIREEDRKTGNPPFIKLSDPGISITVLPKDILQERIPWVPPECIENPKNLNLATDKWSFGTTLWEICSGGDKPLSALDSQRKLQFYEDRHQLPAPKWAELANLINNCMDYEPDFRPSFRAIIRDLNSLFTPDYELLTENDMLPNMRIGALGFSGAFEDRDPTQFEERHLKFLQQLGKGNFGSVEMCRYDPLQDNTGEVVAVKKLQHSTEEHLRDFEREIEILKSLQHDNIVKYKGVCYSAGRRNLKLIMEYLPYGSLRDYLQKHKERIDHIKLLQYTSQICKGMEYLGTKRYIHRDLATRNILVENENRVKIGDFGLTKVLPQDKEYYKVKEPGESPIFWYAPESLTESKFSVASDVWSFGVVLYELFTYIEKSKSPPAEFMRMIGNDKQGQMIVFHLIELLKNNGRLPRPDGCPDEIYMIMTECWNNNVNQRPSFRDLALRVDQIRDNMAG
CDK4/CycD3, sequence (P11802 whole entry, species assumed): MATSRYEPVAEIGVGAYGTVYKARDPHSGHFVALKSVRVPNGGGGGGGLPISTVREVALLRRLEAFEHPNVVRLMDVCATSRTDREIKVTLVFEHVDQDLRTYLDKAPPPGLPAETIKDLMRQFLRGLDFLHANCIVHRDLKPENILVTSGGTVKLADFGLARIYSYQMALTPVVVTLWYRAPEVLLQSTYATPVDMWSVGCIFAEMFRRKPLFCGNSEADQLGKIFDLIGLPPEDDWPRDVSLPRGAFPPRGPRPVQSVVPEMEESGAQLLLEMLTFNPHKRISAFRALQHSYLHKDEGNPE
CDK4/CycD3, sequence (P30281 whole entry partner, species assumed): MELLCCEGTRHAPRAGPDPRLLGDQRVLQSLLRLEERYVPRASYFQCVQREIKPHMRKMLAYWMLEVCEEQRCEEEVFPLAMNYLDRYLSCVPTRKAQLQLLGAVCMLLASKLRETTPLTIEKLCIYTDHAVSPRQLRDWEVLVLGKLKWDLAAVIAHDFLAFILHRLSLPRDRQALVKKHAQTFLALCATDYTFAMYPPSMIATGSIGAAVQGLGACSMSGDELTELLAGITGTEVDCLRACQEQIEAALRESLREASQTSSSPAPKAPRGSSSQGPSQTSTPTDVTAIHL
Jak1, sequence (P23458 whole entry, species assumed): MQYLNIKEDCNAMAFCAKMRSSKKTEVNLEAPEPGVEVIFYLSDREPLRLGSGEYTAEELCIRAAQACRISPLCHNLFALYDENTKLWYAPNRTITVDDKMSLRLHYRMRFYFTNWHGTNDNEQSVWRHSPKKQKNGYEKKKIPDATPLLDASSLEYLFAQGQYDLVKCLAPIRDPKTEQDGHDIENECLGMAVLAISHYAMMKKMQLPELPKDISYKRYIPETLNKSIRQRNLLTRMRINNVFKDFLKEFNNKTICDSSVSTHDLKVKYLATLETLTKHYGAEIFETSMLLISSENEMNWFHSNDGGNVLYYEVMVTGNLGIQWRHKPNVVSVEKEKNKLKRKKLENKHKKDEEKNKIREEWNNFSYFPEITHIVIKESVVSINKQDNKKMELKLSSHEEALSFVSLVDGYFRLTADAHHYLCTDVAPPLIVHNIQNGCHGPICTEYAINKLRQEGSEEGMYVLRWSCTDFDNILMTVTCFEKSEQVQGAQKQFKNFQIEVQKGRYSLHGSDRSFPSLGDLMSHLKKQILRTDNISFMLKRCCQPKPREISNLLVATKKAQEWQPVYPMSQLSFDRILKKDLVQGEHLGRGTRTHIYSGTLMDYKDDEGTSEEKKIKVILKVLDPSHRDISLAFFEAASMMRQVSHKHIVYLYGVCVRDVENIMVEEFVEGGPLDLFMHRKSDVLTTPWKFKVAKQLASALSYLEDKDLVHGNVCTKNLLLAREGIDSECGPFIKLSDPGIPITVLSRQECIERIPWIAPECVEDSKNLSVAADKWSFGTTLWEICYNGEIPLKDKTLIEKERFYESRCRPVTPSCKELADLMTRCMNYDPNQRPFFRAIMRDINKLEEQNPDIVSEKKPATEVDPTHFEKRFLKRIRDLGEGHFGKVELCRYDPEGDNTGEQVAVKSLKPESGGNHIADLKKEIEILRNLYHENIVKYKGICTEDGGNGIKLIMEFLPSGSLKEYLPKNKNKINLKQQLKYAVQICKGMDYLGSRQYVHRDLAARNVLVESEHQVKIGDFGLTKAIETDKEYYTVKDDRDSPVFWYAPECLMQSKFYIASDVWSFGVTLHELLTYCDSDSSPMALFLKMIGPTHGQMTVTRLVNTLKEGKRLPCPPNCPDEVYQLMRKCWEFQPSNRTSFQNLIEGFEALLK
CDK6/cycD3, sequence (Q00534 whole entry, species assumed): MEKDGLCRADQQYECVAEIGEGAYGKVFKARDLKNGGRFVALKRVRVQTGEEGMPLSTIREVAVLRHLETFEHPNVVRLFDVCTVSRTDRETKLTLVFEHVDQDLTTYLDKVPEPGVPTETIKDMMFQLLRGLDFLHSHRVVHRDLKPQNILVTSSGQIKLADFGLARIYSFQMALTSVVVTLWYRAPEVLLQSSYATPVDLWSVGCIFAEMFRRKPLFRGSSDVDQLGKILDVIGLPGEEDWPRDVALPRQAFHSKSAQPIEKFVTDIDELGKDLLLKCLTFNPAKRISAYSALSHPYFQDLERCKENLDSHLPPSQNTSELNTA
CDK6/cycD3, sequence (P30281 whole entry partner, species assumed): as the sequence (P30281 whole entry partner, species assumed) above

CCS(=O)(=O)N1CCN2c3ccc(Nc4ncc(C(N)=O)c(NC5CC5)n4)cc3OC[C@H]2C1 [Compound C1R]
IC50 [1]: < 100 nM
IC50 [2]: < 10 nM
IC50 [3]: < 10 nM

Cc1nc2c(F)cc(-c3nc(Nc4ccc5c(c4)OC[C@H]4CN(C)CCN54)ncc3F)cc2n1C(C)C [Compound B1R]
IC50 [4]: < 50 nM
IC50 [5]: < 10 nM
IC50 [6]: < 10 nM

NC(=O)c1cnc(Nc2ccc3c(c2)OC[C@H]2CN(S(=O)(=O)C4CC4)CCN32)nc1NC1CC1 [Compound C10R]
IC50 [2]: < 10 nM
IC50 [3]: < 10 nM
Cmax [7]: 451 ng/mL
Tmax [7]: 30 min
half-life [7]: 145 min
AUC(0-t) ([7]; read-out: AUC(0-24)): 1240 ng·h/mL

CN1CCC(N2CCN3c4ccc(Nc5ncc(C(N)=O)c(NC6CC6)n5)cc4OC[C@H]3C2)CC1 [Compound C2R]
IC50 [1]: < 500 nM
IC50 [2]: < 20 nM
IC50 [3]: < 50 nM

NC(=O)c1cnc(Nc2ccc3c(c2)OC[C@H]2CN(C4CCOCC4)CCN32)nc1NC1CC1 [Compound C4R]
IC50 [1]: < 500 nM
IC50 [2]: < 20 nM
IC50 [3]: < 50 nM

Cc1nc2c(F)cc(-c3nc(Nc4ccc5c(c4)OC[C@H]4CN(C6CCN(C)CC6)CCN54)ncc3F)cc2n1C(C)C [Compound B3R]
IC50 [4]: < 10 nM
IC50 [5]: < 10 nM
IC50 [6]: < 10 nM

CCc1nc(C(N)=O)c(Nc2ccc3c(c2)OC[C@@H]2CN(C)CC(=O)N32)nc1NC1CCOCC1 [Compound D5S]
IC50 [8]: < 10 nM

CCc1nc(C(N)=O)c(Nc2ccc3c(c2)OC[C@H]2COCCN32)nc1NC1CCOCC1 [Compound D2R]
IC50 [8]: < 10 nM

Cc1nc2c(F)cc(-c3nc(Nc4ccc5c(c4)OC[C@@H]4CN(C)CCN54)ncc3F)cc2n1C(C)C [Compound B1S]
IC50 [4]: < 50 nM
IC50 [5]: < 10 nM
IC50 [6]: < 10 nM

CCc1nc(C(N)=O)c(Nc2ccc3c(c2)OC[C@@H]2COCCN32)nc1NC1CCOCC1 [Compound D2S]
IC50 [8]: < 10 nM

NC(=O)c1cnc(Nc2ccc3c(c2)OC[C@H]2CN(C(=O)C(F)(F)F)CCN32)nc1NC1CC1 [Compound C6R]
IC50 [1]: < 500 nM
IC50 [2]: < 50 nM
IC50 [3]: < 50 nM

CC(=O)N1CCN2c3ccc(Nc4ncc(C(N)=O)c(NC5CC5)n4)cc3OC[C@H]2C1 [Compound C3R]
IC50 [1]: < 100 nM
IC50 [2]: < 10 nM
IC50 [3]: < 50 nM

CN1CCN2c3ccc(Nc4ncc(C(N)=O)c(NC5CC5)n4)cc3OC[C@H]2C1 [Compound C5R]
IC50 [1]: < 100 nM
IC50 [2]: < 10 nM
IC50 [3]: < 50 nM

CCc1nc(C(N)=O)c(Nc2ccc3c(c2)OC[C@H]2CN(C4CC4)CCN32)nc1NC1CCOCC1 [Compound D4R]
IC50 [8]: < 1 nM

— patent publication US10730887B2, “Compound containing tricyclic heteroaryl group” (Hangzhou Innogate Pharma Co., Ltd., priority 2016, dated 2020)
